This note sets out measurements from patent US11008317B2, “Triazolopyridine inhibitors of myeloperoxidase and/or EPX” (priority 2016, dated 2021).

The target of assay [1] is T1, myeloperoxidase (Homo sapiens, UniProt P05164).
T1 sequence (P05164 49-745): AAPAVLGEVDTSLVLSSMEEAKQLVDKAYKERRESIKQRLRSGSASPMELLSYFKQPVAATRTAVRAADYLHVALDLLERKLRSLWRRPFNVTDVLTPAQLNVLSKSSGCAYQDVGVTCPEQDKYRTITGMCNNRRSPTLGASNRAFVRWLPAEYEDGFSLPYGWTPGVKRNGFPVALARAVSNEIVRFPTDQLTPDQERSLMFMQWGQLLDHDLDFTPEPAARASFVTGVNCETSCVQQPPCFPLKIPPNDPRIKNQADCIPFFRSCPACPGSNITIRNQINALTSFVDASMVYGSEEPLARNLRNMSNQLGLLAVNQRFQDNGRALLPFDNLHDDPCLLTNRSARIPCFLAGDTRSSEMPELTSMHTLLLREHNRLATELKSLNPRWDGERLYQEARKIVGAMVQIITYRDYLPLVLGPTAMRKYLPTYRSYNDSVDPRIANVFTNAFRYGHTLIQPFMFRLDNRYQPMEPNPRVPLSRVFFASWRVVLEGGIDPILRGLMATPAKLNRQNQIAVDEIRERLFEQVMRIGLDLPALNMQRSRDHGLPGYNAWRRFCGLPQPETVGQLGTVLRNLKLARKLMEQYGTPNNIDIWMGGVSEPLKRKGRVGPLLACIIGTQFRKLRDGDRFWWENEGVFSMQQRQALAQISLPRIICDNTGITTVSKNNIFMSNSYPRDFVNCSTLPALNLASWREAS
Description: MPO Peroxidation Assay (Amplex Red Assay). It is filed as biochemical. The following applies: potency range class, read-out: Amplex Red Assay IC50 value.

In assay [2] the target is T1, myeloperoxidase. As to the kind of experiment: MPO Chlorination Assay (APF Assay). It counts as biochemical. To be noted: potency range class, read-out: APF Assay IC50 value.

SMILES strings stand for the structures.

The IC50 is the concentration needed to halve the response being measured. `Nc1cc(C(CCN[C@H]2CCc3ccc(F)cc32)c2ccccc2)c2nn[nH]c2n1` (stereo partly drawn) [Example 57, 7-(3-{[(1S)-6-fluoro-2,3-dihydro-1H-inden-1-yl]amino}-1-phenylpropyl)-3H-[1,2,3]triazolo[4,5-b]pyridin-5-amine]: the 50% inhibitory concentration (IC50) lay within 101 to 999 nM in assay [1] and 1 to 100 nM in assay [2].

On to `Nc1cc(C(CCN[C@H]2CCc3cc(F)ccc32)c2ccccc2)c2nn[nH]c2n1` (stereo partly drawn) [Example 58, 7-(3-{[(1S)-5-fluoro-2,3-dihydro-1H-inden-1-yl]amino}-1-phenylpropyl)-3H-[1,2,3]triazolo[4,5-b]pyridin-5-amine], for which the IC50 in assay [1] was in the range of 101 to 999 nM; in assay [2], 1 to 100 nM.

Take `COC(=O)c1cccc(CNCCC(c2ccccc2)c2cc(N)nc3[nH]nnc23)c1` (stereo not shown) [Example 59, methyl 3-{[(3-{5-amino-3H-[1,2,3]triazolo [4,5-b]pyridin-7-yl}-3-phenylpropyl)amino]methyl} benzoate]: the IC50 in assay [1] and in assay [2] was 101 to 999 nM each time.

Take `Nc1cc(C(CCN[C@@H]2CCc3ccc(F)cc32)c2ccccc2)c2nn[nH]c2n1` (stereo partly drawn) [Example 60, 7-(3-{[(1R)-6-fluoro-2,3-dihydro-1H-inden-1-yl]amino}-1-phenylpropyl)-3H-[1,2,3]triazolo[4,5-b]pyridin-5-amine]: the IC50 fell in the range of 101 to 999 nM in assay [1] and 1 to 100 nM in assay [2].

For the compound `Nc1cc(C(CCN[C@@H]2CCc3cc(F)ccc32)c2ccccc2)c2nn[nH]c2n1` (stereo partly drawn) [Example 61, 7-(3-{[(1R)-5-fluoro-2,3-dihydro-1H-inden-1-yl]amino}-1-phenylpropyl)-3H-[1,2,3]triazolo[4,5-b]pyridin-5-amine], the IC50 in assay [1] and in assay [2] was 101 to 999 nM each time.

For `Nc1cc(C(CCNCc2ccnc(C(F)(F)F)c2)c2ccccc2)c2nn[nH]c2n1` (stereo not shown) [Example 62, 7-[1-phenyl-3-({[2-(trifluoromethyl)pyridin-4-yl]methyl}amino)propyl]-3H-[1,2,3]triazolo[4,5-b]pyridin-5-amine], the IC50 in assay [1] and in assay [2] was 101 to 999 nM each time.

For `Nc1cc(C(CCNCc2ccccc2Cc2ccccc2)c2ccccc2)c2nn[nH]c2n1` (stereo not shown) [Example 63, 7-(3-{[(2-benzylphenyl)methyl]amino}-1-phenylpropyl)-3H-[1,2,3]triazolo[4,5-b]pyridin-5-amine], the IC50 in assay [1] was in the range of 101 to 999 nM; in assay [2], 1 to 100 nM.

For `Nc1cc(C(CCN[C@@H]2CCc3c(Cl)cccc32)c2ccccc2)c2nn[nH]c2n1` (stereo partly drawn) [Example 65, 7-(3-{[(1R)-4-chloro-2,3-dihydro-1H-inden-1-yl]amino}-1-phenylpropyl)-3H-[1,2,3]triazolo[4,5-b]pyridin-5-amine], the IC50 in assay [1] and in assay [2] was 101 to 999 nM each time.

As for `NC(=O)c1cccc(CNCCC(c2ccccc2)c2cc(N)nc3[nH]nnc23)c1` (stereo not shown) [Example 70, 3-{[(3-{5-amino-3H-[1,2,3]triazolo[4,5-b]pyridin-7-yl}-3-phenylpropyl)amino]methyl}hbenzamide], the IC50 in assay [1] and in assay [2] was 101 to 999 nM each time.

For the compound `CN(C)C(=O)c1cccc(CNCCC(c2ccccc2)c2cc(N)nc3[nH]nnc23)c1` (stereo not shown) [Example 72, 3-{[(3-{5-amino-3H-[1,2,3]triazolo[4,5-b]pyridin-7-yl}-3-phenylpropyl)amino]methyl}-N,N-dimethylbenzamide], the IC50 in assay [1] and in assay [2] was 101 to 999 nM throughout.

Turning to `Nc1cc(C(CCN[C@H]2CCc3c(Cl)cccc32)c2ccccc2)c2nn[nH]c2n1` (stereo partly drawn) [Example 73, 7-(3-{[(1S)-4-chloro-2,3-dihydro-1H-inden-1-yl]amino}-1-phenylpropyl)-3H-[1,2,3]triazolo [4,5-b]pyridin-5-amine], the IC50 in assay [1] lay within 1000 to 10000 nM; in assay [2], 1 to 100 nM.

With `Nc1cc(C(CCNCc2ccccc2Oc2ccccc2)c2ccccc2)c2nn[nH]c2n1` (stereo not shown) [Example 74, 7-(3-{[(2-phenoxyphenyl)methyl]amino}-1-phenylpropyl)-3H-[1,2,3]triazolo[4,5-b]pyridin-5-amine], the IC50 in assay [1] lay within 101 to 999 nM; in assay [2] it was 1 to 100 nM.

For the compound `Nc1cc(C(CCN[C@H]2C[C@@H](c3ccccc3)C2)c2ccccc2)c2nn[nH]c2n1` (stereo partly shown) [Example 76, 7-(1-phenyl-3-{[(1s,3s)-3-phenylcyclobutyl]amino}propyl)-3H-[1,2,3]triazolo[4,5-b]pyridin-5-amine], the IC50 in assay [1] lay within 101 to 999 nM; in assay [2], 1 to 100 nM.

As to `Nc1cc(C(CCNCc2ccccc2Cc2ccc3c(c2)CCCC3)c2ccccc2)c2nn[nH]c2n1` (stereo not shown) [Example 78, 7-{1-phenyl-3-[({2-[(5,6,7,8-tetrahydronaphthalen-2-yl)methyl]phenyl}methyl)amino]propyl}-3H-[1,2,3] triazolo[4,5-b] pyridin-5-amine], the IC50 in assay [1] lay in the range of 101 to 999 nM; in assay [2] it was 1 to 100 nM.

In the case of `Nc1cc(C(CCN[C@H]2C[C@H](c3ccccc3)Cc3ccccc32)c2ccccc2)c2nn[nH]c2n1` (stereo partly drawn) [Example 82, 7-(1-phenyl-3-{[(1S,3R)-3-phenyl-1,2,3,4-tetrahydronaphthalen-1-yl]amino}propyl)-3H-[1,2,3]triazolo [4,5-b]pyridin-5-amine], the IC50 is 1000 to 10000 nM in assay [1] and 1 to 100 nM in assay [2].

Consider `Nc1cc(C(CCN[C@@H]2C[C@H](c3ccccc3)Cc3ccccc32)c2ccccc2)c2nn[nH]c2n1` (stereo partly drawn) [Example 83, 7-(1-phenyl-3-{[(1R,3R)-3-phenyl-1,2,3,4-tetrahydronaphthalen-1-yl]amino}propyl)-3H-[1,2,3]triazolo [4,5-b]pyridin-5-amine], for which the figures for the IC50 in assay [1] and in assay [2] were 1000 to 10000 nM and 1 to 100 nM, respectively.

As to `Nc1cc(C(CCN[C@@H]2C[C@@H](c3ccccc3)Cc3ccccc32)c2ccccc2)c2nn[nH]c2n1` (stereo partly drawn) [Example 84, 7-(1-phenyl-3-{[(1R,3S)-3-phenyl-1,2,3,4-tetrahydronaphthalen-1-yl]amino}propyl)-3H-[1,2,3]triazolo [4,5-b]pyridin-5-amine], the IC50 in assay [1] lay within 1000 to 10000 nM; in assay [2], 101 to 999 nM.

For `CC1(C)C[C@@H](NCCC(c2ccccc2)c2cc(N)nc3[nH]nnc23)c2ccccc21` (stereo partly drawn) [Example 85, 7-(3-{[(1R)-3,3-dimethyl-2,3-dihydro-1H-inden-1-yl]amino}-1-phenylpropyl)-3H-[1,2,3]triazolo [4,5-b]pyridin-5-amine], the IC50 is 101 to 999 nM in assay [1] and 1 to 100 nM in assay [2].

In the case of `CC1(C)C[C@H](NCCC(c2ccccc2)c2cc(N)nc3[nH]nnc23)c2ccccc21` (stereo partly drawn) [Example 87, 7-(3-{[(1S)-3,3-dimethyl-2,3-dihydro-1H-inden-1-yl]amino}-1-phenylpropyl)-3H-[1,2,3]triazolo [4,5-b]pyridin-5-amine], the half-maximal inhibitory concentration (IC50) in assay [1] was in the range of 101 to 999 nM; in assay [2] it was 1 to 100 nM.

On to `CC1C[C@@H](NCCC(c2ccccc2)c2cc(N)nc3[nH]nnc23)c2ccccc21` (stereo partly drawn) [Example 88, 7-(3-{[(1R)-3-methyl-2,3-dihydro-1H-inden-1-yl]amino}-1-phenylpropyl)-3H-[1,2,3]triazolo[4,5-b]pyridin-5-amine], for which the IC50 in assay [1] and in assay [2] was 101 to 999 nM in each case.

Regarding `Nc1cc(C(CCNCc2ccccc2OC(F)(F)F)c2ccccc2)c2nn[nH]c2n1` (stereo not shown) [Example 89, 7-[1-phenyl-3-({[2-(trifluoromethoxy)phenyl]methyl}amino)propyl]-3H-[1,2,3] triazolo[4,5-b] pyridin-5-amine], the IC50 in assay [1] lay in the range of 1000 to 10000 nM; in assay [2], 101 to 999 nM.

Take `Nc1cc(C(CCNC2CCN(c3ccccc3)CC2)c2ccccc2)c2nn[nH]c2n1` (stereo not shown) [Example 92, N-(3-{5-amino-3H-[1,2,3]triazolo [4,5-b]pyridin-7-yl}-3-phenylpropyl)-1-phenylpiperidin-4-amine]: the IC50 in assay [1] lay in the range of 1000 to 10000 nM; in assay [2], 1 to 100 nM.

Turning to `CC1C[C@H](NCCC(c2ccccc2)c2cc(N)nc3[nH]nnc23)c2ccccc21` (stereo partly drawn) [Example 95, 7-(3-{[(1S)-3-methyl-2,3-dihydro-1H-inden-1-yl]amino}-1-phenylpropyl)-3H-[1,2,3]triazolo[4,5-b]pyridin-5-amine], the IC50 in assay [1] fell in the range of 101 to 999 nM; in assay [2] it was 1 to 100 nM.

For the compound `CC(C)(C)C1CCC(NCCC(c2ccccc2)c2cc(N)nc3[nH]nnc23)CC1` (stereo not shown) [Example 96, 7-{3-[(4-tert-butylcyclohexyl)amino]-1-phenylpropyl}-3H-[1,2,3]triazolo[4,5-b] pyridin-5-amine], the IC50 in assay [1] is 1000 to 10000 nM; in assay [2] it was 101 to 999 nM.

`CC1C[C@@H](NCCC(c2ccccc2)c2cc(N)nc3[nH]nnc23)c2ccccc21` (stereo partly drawn) [Example 98, 7-(3-{[(1R)-3-methyl-2,3-dihydro-1H-inden-1-yl]amino}-1-phenylpropyl)-3H-[1,2,3]triazolo [4,5-b] pyridin-5-amine]: the IC50 was in the range of 101 to 999 nM in assay [1] and 1 to 100 nM in assay [2].

`CC1C[C@H](NCCC(c2ccccc2)c2cc(N)nc3[nH]nnc23)c2ccccc21` (stereo partly drawn) [Example 99, 7-(3-{[(1S)-3-methyl-2,3-dihydro-1H-inden-1-yl]amino}-1-phenylpropyl)-3H-[1,2,3]triazolo[4,5-b] pyridin-5-amine]: the IC50 lay in the range of 101 to 999 nM in assay [1] and 1 to 100 nM in assay [2].
